# From patent EP0327492A1, “Herbicidally and plantgrowth regulatory active quinoline and pyrindine compounds” (CIBA-GEIGY AG, priority 1988, dated 1989)
# What was measured:
# Assay type in all cases: in vivo
# Chenopodium Sp. [1] = test: Post-emergent herbicidal action, contact herbicide (B.3); conditions: 500 bis 2000 [g/ha], 15 days after treatment
# Method: (§1) Im Gewächshaus wird unmittelbar nach der Einsaat der Versuchspflanzen in Saatschalen die Erdoberfläche mit einer wässrigen Dispersion der Wirkstoffe, erhalten aus einem 25 %igen Emulsionskonzentrat behandelt. Es werden Konzentrationen von 2000-500 g Wirksubstanz/Hektar angewendet. Die Saatschalen werden im Gewächshaus bei 22-25° C und 50-70 % relativer Luftfeuchtigkeit gehalten und der Versuch nach 3 Wochen ausgewertet und die Resultate nach folgender Notenskala ausgewertet. • 1 Pflanze hat nicht gekeimt oder ist eingegangen • 2-3 sehr starke Schäden • 4 starke Schäden • 5 mittlere Schäden, die Pflanzen sind verkümmert • 6 Schäden, die Pflanze kann regenerieren • 7-8 leichte Schäden • 9 normales Wachstum, wie das unbehandelter Pflanzen
# (§2) Boniturnoten von 1 bis 4 (insbesondere von 1 bis 3) weisen auf eine gute bis sehr gute Herbizidwirkung hin. Boniturnoten von 6 bis 9 (insbesondere 7 bis 9) weisen auf eine gute Toleranz (insbesondere bei Kulturpflanzen) hin.
# (§3) Eine Anzahl Unkräuter, sowohl monokotyle wie dikotyle, werden nach dem Auflaufen (im 4- bis 6-Blattstadium) mit einer wässrigen Wirkstoffdispersion in einer Dosierung von 2000-500 g Wirksubstanz pro Hektar auf die Pflanzen gespritzt und diese bei 24°-26°C und 45-60 % relativer Luftfeuchtigkeit gehalten. 15 Tage nach der Behandlung wird der Versuch nach dem in Beispiel B.2. gegebenen Massstab bewertet.
# Sinapis [2] = test: as above; conditions: 500 bis 2000 [g/ha], 15 days after treatment
# Method: as §1, §2, §3
# Stellaria [3] = test: as above; conditions: 500 bis 2000 [g/ha], 15 days after treatment
# Method: as §1, §2, §3
# Amaranthus ret. [4] = test: as above; conditions: 500 bis 2000 [g/ha], 15 days after treatment
# Method: as §1, §2, §3
# Solanum nigrum [5] = test: as above; conditions: 500 bis 2000 [g/ha], 15 days after treatment
# Method: as §1, §2, §3
# Alopecurus myos. [6] = test: as above; conditions: 500 bis 2000 [g/ha], 15 days after treatment
# Method: as §1, §2, §3
# Veronica Sp. [7] = test: as above; conditions: 500 bis 2000 [g/ha], 15 days after treatment
# Method: as §1, §2, §3
# Echinochloa crus galli [8] = test: as above; conditions: 500 bis 2000 [g/ha], 15 days after treatment
# Method: as §1, §2, §3
# Sorghum halep. [9] = test: as above; conditions: 500 bis 2000 [g/ha], 15 days after treatment
# Method: as §1, §2, §3
# Avena fatua [10] = test: as above; conditions: 500 bis 2000 [g/ha], 15 days after treatment
# Method: as §1, §2, §3
# Chrysanthe. leuc. [11] = test: as above; conditions: 500 bis 2000 [g/ha], 15 days after treatment
# Method: as §1, §2, §3
# Galium aparine [12] = test: as above; conditions: 500 bis 2000 [g/ha], 15 days after treatment
# Method: as §1, §2, §3
# Bromus tectorum [13] = test: as above; conditions: 500 bis 2000 [g/ha], 15 days after treatment
# Method: as §1, §2, §3
# Digitaria sang. [14] = test: as above; conditions: 500 bis 2000 [g/ha], 15 days after treatment
# Method: as §1, §2, §3
# Xanthium Sp. = test: as above; conditions: 500 bis 2000 [g/ha], 15 days after treatment
# Method: as §1, §2, §3
# Abutilon [15] = test: as above; conditions: 500 bis 2000 [g/ha], 15 days after treatment
# Method: as §1, §2, §3
# Lolium perenne [16] = test: as above; conditions: 500 bis 2000 [g/ha], 15 days after treatment
# Method: as §1, §2, §3
# Chenopodium Sp. [17] = test: Pre-emergent herbicidal action (B.2); conditions: 500 bis 2000 [g/ha], evaluated after 3 weeks
# Method: as §1, §2
# Ipomoea = test: Pre-emergent herbicidal action (B.2); conditions: 500 bis 2000 [g/ha], evaluated after 3 weeks
# Method: as §1, §2
# Sinapis [18] = test: Pre-emergent herbicidal action (B.2); conditions: 500 bis 2000 [g/ha], evaluated after 3 weeks
# Method: as §1, §2
# Stellaria [19] = test: Pre-emergent herbicidal action (B.2); conditions: 500 bis 2000 [g/ha], evaluated after 3 weeks
# Method: as §1, §2
# Amaranthus ret. [20] = test: Pre-emergent herbicidal action (B.2); conditions: 500 bis 2000 [g/ha], evaluated after 3 weeks
# Method: as §1, §2
# Solanum nigrum [21] = test: Pre-emergent herbicidal action (B.2); conditions: 500 bis 2000 [g/ha], evaluated after 3 weeks
# Method: as §1, §2
# Alopecurus myos. [22] = test: Pre-emergent herbicidal action (B.2); conditions: 500 bis 2000 [g/ha], evaluated after 3 weeks
# Method: as §1, §2
# Veronica Sp. [23] = test: Pre-emergent herbicidal action (B.2); conditions: 500 bis 2000 [g/ha], evaluated after 3 weeks
# Method: as §1, §2
# Echinochloa crus galli [24] = test: Pre-emergent herbicidal action (B.2); conditions: 500 bis 2000 [g/ha], evaluated after 3 weeks
# Method: as §1, §2
# Sorghum halep. [25] = test: Pre-emergent herbicidal action (B.2); conditions: 500 bis 2000 [g/ha], evaluated after 3 weeks
# Method: as §1, §2
# Avena fatua [26] = test: Pre-emergent herbicidal action (B.2); conditions: 500 bis 2000 [g/ha], evaluated after 3 weeks
# Method: as §1, §2
# Chrysanthe. leuc. [27] = test: Pre-emergent herbicidal action (B.2); conditions: 500 bis 2000 [g/ha], evaluated after 3 weeks
# Method: as §1, §2
# Galium aparine [28] = test: Pre-emergent herbicidal action (B.2); conditions: 500 bis 2000 [g/ha], evaluated after 3 weeks
# Method: as §1, §2
# Bromus tectorum [29] = test: Pre-emergent herbicidal action (B.2); conditions: 500 bis 2000 [g/ha], evaluated after 3 weeks
# Method: as §1, §2
# Digitaria sang. [30] = test: Pre-emergent herbicidal action (B.2); conditions: 500 bis 2000 [g/ha], evaluated after 3 weeks
# Method: as §1, §2
# Abutilon [31] = test: Pre-emergent herbicidal action (B.2); conditions: 500 bis 2000 [g/ha], evaluated after 3 weeks
# Method: as §1, §2
# Lolium perenne [32] = test: Pre-emergent herbicidal action (B.2); conditions: 500 bis 2000 [g/ha], evaluated after 3 weeks
# Method: as §1, §2
compound,measurement,setting,value
"CC1CCc2nc3c(cc2C1)C(=O)N1C(=O)C(C)(C(C)C)N=C31 (stereo not shown) [Verbindung 3.01, 2,8-Dimethyl-2-isopropyl-7,8,9,10-tetrahydro-3H,5H-imidazo[1',2':1,2]pyrrolo[3,4-b]chinolin-3,5-dion]",Herbizidwirkung,Chenopodium Sp. [1],gute bis sehr gute Herbizidwirkung (Boniturnoten von 1 bis 4 (insbesondere von 1 bis 3) weisen auf eine gute bis sehr gute Herbizidwirkung hin)
same,Herbizidwirkung,Sinapis [2],gute bis sehr gute Herbizidwirkung (Boniturnoten von 1 bis 4 (insbesondere von 1 bis 3) weisen auf eine gute bis sehr gute Herbizidwirkung hin)
same,Herbizidwirkung,Stellaria [3],gute bis sehr gute Herbizidwirkung (Boniturnoten von 1 bis 4 (insbesondere von 1 bis 3) weisen auf eine gute bis sehr gute Herbizidwirkung hin)
same,Herbizidwirkung,Amaranthus ret. [4],gute bis sehr gute Herbizidwirkung (Boniturnoten von 1 bis 4 (insbesondere von 1 bis 3) weisen auf eine gute bis sehr gute Herbizidwirkung hin)
same,Herbizidwirkung,Solanum nigrum [5],gute bis sehr gute Herbizidwirkung (Boniturnoten von 1 bis 4 (insbesondere von 1 bis 3) weisen auf eine gute bis sehr gute Herbizidwirkung hin)
same,Herbizidwirkung,Alopecurus myos. [6],gute bis sehr gute Herbizidwirkung (Boniturnoten von 1 bis 4 (insbesondere von 1 bis 3) weisen auf eine gute bis sehr gute Herbizidwirkung hin)
same,Herbizidwirkung,Veronica Sp. [7],gute bis sehr gute Herbizidwirkung (Boniturnoten von 1 bis 4 (insbesondere von 1 bis 3) weisen auf eine gute bis sehr gute Herbizidwirkung hin)
same,Herbizidwirkung,Echinochloa crus galli [8],gute bis sehr gute Herbizidwirkung (Boniturnoten von 1 bis 4 (insbesondere von 1 bis 3) weisen auf eine gute bis sehr gute Herbizidwirkung hin)
same,Herbizidwirkung,Sorghum halep. [9],gute bis sehr gute Herbizidwirkung (Boniturnoten von 1 bis 4 (insbesondere von 1 bis 3) weisen auf eine gute bis sehr gute Herbizidwirkung hin)
same,Herbizidwirkung,Avena fatua [10],gute bis sehr gute Herbizidwirkung (Boniturnoten von 1 bis 4 (insbesondere von 1 bis 3) weisen auf eine gute bis sehr gute Herbizidwirkung hin)
same,Herbizidwirkung,Chrysanthe. leuc. [11],gute bis sehr gute Herbizidwirkung (Boniturnoten von 1 bis 4 (insbesondere von 1 bis 3) weisen auf eine gute bis sehr gute Herbizidwirkung hin)
same,Herbizidwirkung,Galium aparine [12],gute bis sehr gute Herbizidwirkung (Boniturnoten von 1 bis 4 (insbesondere von 1 bis 3) weisen auf eine gute bis sehr gute Herbizidwirkung hin)
same,Herbizidwirkung,Bromus tectorum [13],gute bis sehr gute Herbizidwirkung (Boniturnoten von 1 bis 4 (insbesondere von 1 bis 3) weisen auf eine gute bis sehr gute Herbizidwirkung hin)
same,Herbizidwirkung,Digitaria sang. [14],gute bis sehr gute Herbizidwirkung (Boniturnoten von 1 bis 4 (insbesondere von 1 bis 3) weisen auf eine gute bis sehr gute Herbizidwirkung hin)
same,Herbizidwirkung,Xanthium Sp.,gute bis sehr gute Herbizidwirkung (Boniturnoten von 1 bis 4 (insbesondere von 1 bis 3) weisen auf eine gute bis sehr gute Herbizidwirkung hin)
same,Herbizidwirkung,Abutilon [15],gute bis sehr gute Herbizidwirkung (Boniturnoten von 1 bis 4 (insbesondere von 1 bis 3) weisen auf eine gute bis sehr gute Herbizidwirkung hin)
same,Herbizidwirkung,Lolium perenne [16],gute bis sehr gute Herbizidwirkung (Boniturnoten von 1 bis 4 (insbesondere von 1 bis 3) weisen auf eine gute bis sehr gute Herbizidwirkung hin)
same,Herbizidwirkung,Chenopodium Sp. [17],gute bis sehr gute Herbizidwirkung (Boniturnoten von 1 bis 4 (insbesondere von 1 bis 3) weisen auf eine gute bis sehr gute Herbizidwirkung hin)
same,Herbizidwirkung,Ipomoea,gute bis sehr gute Herbizidwirkung (Boniturnoten von 1 bis 4 (insbesondere von 1 bis 3) weisen auf eine gute bis sehr gute Herbizidwirkung hin)
same,Herbizidwirkung,Sinapis [18],gute bis sehr gute Herbizidwirkung (Boniturnoten von 1 bis 4 (insbesondere von 1 bis 3) weisen auf eine gute bis sehr gute Herbizidwirkung hin)
same,Herbizidwirkung,Stellaria [19],gute bis sehr gute Herbizidwirkung (Boniturnoten von 1 bis 4 (insbesondere von 1 bis 3) weisen auf eine gute bis sehr gute Herbizidwirkung hin)
same,Herbizidwirkung,Amaranthus ret. [20],gute bis sehr gute Herbizidwirkung (Boniturnoten von 1 bis 4 (insbesondere von 1 bis 3) weisen auf eine gute bis sehr gute Herbizidwirkung hin)
same,Herbizidwirkung,Solanum nigrum [21],gute bis sehr gute Herbizidwirkung (Boniturnoten von 1 bis 4 (insbesondere von 1 bis 3) weisen auf eine gute bis sehr gute Herbizidwirkung hin)
same,Herbizidwirkung,Alopecurus myos. [22],gute bis sehr gute Herbizidwirkung (Boniturnoten von 1 bis 4 (insbesondere von 1 bis 3) weisen auf eine gute bis sehr gute Herbizidwirkung hin)
same,Herbizidwirkung,Veronica Sp. [23],gute bis sehr gute Herbizidwirkung (Boniturnoten von 1 bis 4 (insbesondere von 1 bis 3) weisen auf eine gute bis sehr gute Herbizidwirkung hin)
same,Herbizidwirkung,Echinochloa crus galli [24],gute bis sehr gute Herbizidwirkung (Boniturnoten von 1 bis 4 (insbesondere von 1 bis 3) weisen auf eine gute bis sehr gute Herbizidwirkung hin)
same,Herbizidwirkung,Sorghum halep. [25],gute bis sehr gute Herbizidwirkung (Boniturnoten von 1 bis 4 (insbesondere von 1 bis 3) weisen auf eine gute bis sehr gute Herbizidwirkung hin)
same,Herbizidwirkung,Avena fatua [26],gute bis sehr gute Herbizidwirkung (Boniturnoten von 1 bis 4 (insbesondere von 1 bis 3) weisen auf eine gute bis sehr gute Herbizidwirkung hin)
same,Herbizidwirkung,Chrysanthe. leuc. [27],gute bis sehr gute Herbizidwirkung (Boniturnoten von 1 bis 4 (insbesondere von 1 bis 3) weisen auf eine gute bis sehr gute Herbizidwirkung hin)
same,Herbizidwirkung,Galium aparine [28],gute bis sehr gute Herbizidwirkung (Boniturnoten von 1 bis 4 (insbesondere von 1 bis 3) weisen auf eine gute bis sehr gute Herbizidwirkung hin)
same,Herbizidwirkung,Bromus tectorum [29],gute bis sehr gute Herbizidwirkung (Boniturnoten von 1 bis 4 (insbesondere von 1 bis 3) weisen auf eine gute bis sehr gute Herbizidwirkung hin)
same,Herbizidwirkung,Digitaria sang. [30],gute bis sehr gute Herbizidwirkung (Boniturnoten von 1 bis 4 (insbesondere von 1 bis 3) weisen auf eine gute bis sehr gute Herbizidwirkung hin)
same,Herbizidwirkung,Abutilon [31],gute bis sehr gute Herbizidwirkung (Boniturnoten von 1 bis 4 (insbesondere von 1 bis 3) weisen auf eine gute bis sehr gute Herbizidwirkung hin)
same,Herbizidwirkung,Lolium perenne [32],gute bis sehr gute Herbizidwirkung (Boniturnoten von 1 bis 4 (insbesondere von 1 bis 3) weisen auf eine gute bis sehr gute Herbizidwirkung hin)
